Test results reported in publication PMC11058275, “Targeted potent antimicrobial and antitumor oxygen-heterocyclic-based pyran analogues: synthesis and computational studies” (Scientific Reports, 2024).
Read-outs that look alike come from different tables or passages of the source.

Key:
[1] = tested on: Escherichia coli (ATCC 8739); test: Agar diffusion antibacterial screening (inhibition zone); type: cell-based; details: ATCC8739, E. coli, 1 mg/mL, Mueller–Hinton agar, read-out: Diameter of inhibition zone
Method: (§1) The antibacterial activity of β-enamionitriles (4a-q) was screened using Mueller–Hinton agar medium for bacteria in an agar diffusion methodology. Ciprofloxacin (1 mg/mL) was the reference antibiotic drug used in the analysis of collections that included four gram-positive species of multi drug resistant pathogenic bacteria: Staphylococcus aureus (MRSA) (ATCC 6539), Staphylococcus aureus (ATCC 6538), Bacillus cereus (ATCC 10987), Bacillus subtilis (ATCC 6633), and two gram-negative species of multi drug resistant pathogenic bacteria Klebsiella pneumonia (ATCC 13883) and Escherichia coli (ATCC 8739). […] Using a 1 mg/mL concentration of compounds (4a-q), the minimum zone of inhibition (IZ, the area around the antimicrobial agent where bacterial growth is prevented) was established in mm ± standard deviation beyond the well diameter (6 mm). […] The synthetic compound's inhibitory effects on evaluation against these organisms are depicted in Fig. 9 and Table 1.
(§2) Compound 4a-q was screened for its in vitro antimicrobial activities against pathogenic bacteria species using the standard antibiotics Ampicillin, Gentamycin and Ketoconazole as reference drugs as reported previously. The minimum inhibitory concentration (MIC) was determined as previously reported. The antimicrobial activities were performed at the Regional Centre for Mycology & Biotechnology (RCMP), Al-Azhar University.

[2] = tested on: Bacillus subtilis (ATCC 6633); test: as above; type: cell-based; details: ATCC6633, B. subtilis, 1 mg/mL, Mueller–Hinton agar, read-out: Diameter of inhibition zone
Method: as §1, §2

[3] = tested on: Staphylococcus aureus (MRSA) (ATCC 6539); test: as above; type: cell-based; details: read-out: Diameter of inhibition zone
Method: as §1, §2

[4] = tested on: Staphylococcus aureus (ATCC 6538); test: as above; type: cell-based; details: ATCC6538, S. aureus, 1 mg/mL, Mueller–Hinton agar, read-out: Diameter of inhibition zone
Method: as §1, §2

[5] = tested on: Bacillus cereus (ATCC 10987); test: as above; type: cell-based; details: ATCC10987, B. cereus, 1 mg/mL, Mueller–Hinton agar, read-out: Diameter of inhibition zone
Method: as §1, §2

[6] = tested on: Klebsiella pneumonia (ATCC 13883); test: as above; type: cell-based; details: Klebsiella pneumoniae, ATCC13883, K. pneumonia, 1 mg/mL, Mueller–Hinton agar, read-out: Diameter of inhibition zone
Method: as §1, §2

[7] = tested on: HFL-1 (human foetal lung); test: MTT cytotoxicity assay, normal cells; type: cell-based; details: HFL1, HFL-1 normal cells, MTT, 24-h incubation, mean ± standard error, read-out: IC50 Normotoxicity HFL-1
Text: (§3) The antiproliferative activity of the newly synthesized 1H-benzo[f]chromenes derivatives (4a-q) was examined in three human cancer cell lines: MCF-7 (breast cancer), HCT-116 (human colon cancer), and HepG-2 (hepatocellular carcinoma), as well as the two normal cell lines, HFL-1 (human foetal lung) and WI-38 (human diploid fibroblasts), using the 3-(4,5-dimethylthiazol-2-yl)-2,5-diphenyl tetrazolium bromide (MTT) colorimetric assay[56].
(§4) Compounds 4a-q was initially evaluated for in vitro antitumor activity against three different human cell lines: MCF-7, HCT-116 and HepG-2. In-vitro cytotoxicity evaluation was performed at the Regional Center for Mycology & Biotechnology (RCMP), Al-Azhar University under different concentrations (50, 25, 12.5, 6.25, 3.125, 1.56 and 0 µg/mL); vinblastine and doxorubicin are used as reference cytotoxic compounds.

[8] = tested on: MCF-7 (breast cancer); test: MTT cytotoxicity assay; details: Homo sapiens
Text: as §3, §4

[9] = tested on: HCT-116 (human colon cancer); test: MTT cytotoxicity assay; type: cell-based
Text: as §3, §4

[10] = tested on: WI-38 (human diploid fibroblasts); test: MTT cytotoxicity assay, normal cells; type: cell-based; details: WI-38 normal cells, MTT, 24-h incubation, mean ± standard error, read-out: IC50 Normotoxicity WI-38
Text: as §3, §4

[11] = tested on: HepG-2 (hepatocellular carcinoma); test: MTT cytotoxicity assay; type: cell-based; details: Homo sapiens
Text: as §3, §4

[12] = MCF7, 24 h, read-out: IC50 Cancerotoxicity MCF-7
[13] = MTT, 24-h incubation, mean ± standard error, read-out: IC50 Cancerotoxicity HCT-116
[14] = HepG2, MTT, 24-h incubation, mean ± standard error, read-out: IC50 Cancerotoxicity HepG-2

| SMILES | melting point | zone of inhibition at 1000 µg/mL [1] | zone of inhibition at 1000 µg/mL [2] | zone of inhibition at 1000 µg/mL [3] | zone of inhibition at 1000 µg/mL [4] | zone of inhibition at 1000 µg/mL [5] | zone of inhibition at 1000 µg/mL [6] | IC50 [7] | IC50 [8, 12] | IC50 [9, 13] | IC50 [10] | IC50 [11, 14] | IC50 ([8]; MCF7, read-out: IC50 MCF-7) | IC50 ([9]; given in µg/mL, read-out: IC50 HCT-116) | IC50 ([11]; HepG2, given in µg/mL, read-out: IC50 HepG-2) |
| --- | --- | --- | --- | --- | --- | --- | --- | --- | --- | --- | --- | --- | --- | --- | --- |
| N#CC(C#N)=Cc1ccc(Cl)cc1 | 162 to 163 °C | – | – | – | – | – | – | – | – | – | – | – | – | – | – |
| O=C(O)c1cn(C2CC2)c2cc(N3CCNCC3)c(F)cc2c1=O [Ciprofloxacin, reference compound] | – | 25 mm | 0 mm | 0 mm | 0 mm | 22 mm | 0 mm | – | – | – | – | – | – | – | – |
| COc1ccc2c3c(ccc2c1)OC(N)=C(C#N)C3c1ccccc1Cl (stereo not drawn) [Compound 4b, 3-Amino-1-(2-chlorophenyl)-8-methoxy-1H-benzo[f]chromene-2-carbonitrile] | 265 to 266 °C | 12 mm | 0 mm | 13 mm | 0 mm | 14 mm | 13 mm | 198.6 ± 0.1 µM | 3.9 ± 0.18 µM | 8.6 ± 0.25 µM | 171 ± 0.2 µM | 6.1 ± 0.2 µM | – | – | – |
| COc1ccc2c3c(ccc2c1)OC(N)=C(C#N)C3c1cccc(Cl)c1 (stereo not drawn) [Compound 4c, 3-Amino-1-(3-chlorophenyl)-8-methoxy-1H-benzo[f]chromene-2-carbonitrile] | 216 to 217 °C | 12 mm | 0 mm | 15 mm | 0 mm | 17 mm | 13 mm | 187.6 ± 0.2 µM | 3.6 ± 0.14 µM | 5.5 ± 0.35 µM | 214.1 ± 0.1 µM | 3.3 ± 0.5 µM | – | – | – |
| COc1ccc2c3c(ccc2c1)OC(N)=C(C#N)C3c1ccc(I)cc1 (stereo not drawn) [Compound 4f, 3-Amino-1-(4-iodophenyl)-8-methoxy-1H-benzo[f]chromene-2-carbonitrile] | 227 to 228 °C | 0 mm | 8 mm | 12 mm | 0 mm | 15 mm | 9 mm | – | 48.5 ± 0.1 µM | 27.8 ± 0.3 µM | – | 39.2 ± 0.2 µM | – | – | – |
| COc1ccc2c3c(ccc2c1)OC(N)=C(C#N)C3c1c(F)cccc1F (stereo not drawn) [Compound 4h, 3-Amino-1-(2,6-difluorophenyl)-8-methoxy-1H-benzo[f]chromene-2-carbonitrile] | 295 to 296 °C | 0 mm | 0 mm | 13 mm | 9 mm | 9 mm | 10 mm | – | 60.2 ± 0.3 µM | 33.8 ± 0.12 µM | – | 48.1 ± 0.2 µM | – | – | – |
| COc1ccc2c3c(ccc2c1)OC(N)=C(C#N)C3c1cccc(Cl)c1Cl (stereo not drawn) [Compound 4i, 3-Amino-1-(2,3-dichlorophenyl)-8-methoxy-1H-benzo[f]chromene-2-carbonitrile] | 256 to 257 °C | 0 mm | 0 mm | 13 mm | 0 mm | 8 mm | 14 mm | 154.5 ± 0.1 µM | 2.3 ± 0.01 µM | 3.5 ± 0.15 µM | 160.1 ± 0.2 µM | 2.8 ± 0.17 µM | 0.9 ± 0.01 µg/mL | 1.4 ± 0.15 µg/mL | 11.1 ± 0.17 µg/mL |
